The assay deals with T1, SIRT1 (Homo sapiens, UniProt Q96EB6).
T1 sequence (Q96EB6 1-747): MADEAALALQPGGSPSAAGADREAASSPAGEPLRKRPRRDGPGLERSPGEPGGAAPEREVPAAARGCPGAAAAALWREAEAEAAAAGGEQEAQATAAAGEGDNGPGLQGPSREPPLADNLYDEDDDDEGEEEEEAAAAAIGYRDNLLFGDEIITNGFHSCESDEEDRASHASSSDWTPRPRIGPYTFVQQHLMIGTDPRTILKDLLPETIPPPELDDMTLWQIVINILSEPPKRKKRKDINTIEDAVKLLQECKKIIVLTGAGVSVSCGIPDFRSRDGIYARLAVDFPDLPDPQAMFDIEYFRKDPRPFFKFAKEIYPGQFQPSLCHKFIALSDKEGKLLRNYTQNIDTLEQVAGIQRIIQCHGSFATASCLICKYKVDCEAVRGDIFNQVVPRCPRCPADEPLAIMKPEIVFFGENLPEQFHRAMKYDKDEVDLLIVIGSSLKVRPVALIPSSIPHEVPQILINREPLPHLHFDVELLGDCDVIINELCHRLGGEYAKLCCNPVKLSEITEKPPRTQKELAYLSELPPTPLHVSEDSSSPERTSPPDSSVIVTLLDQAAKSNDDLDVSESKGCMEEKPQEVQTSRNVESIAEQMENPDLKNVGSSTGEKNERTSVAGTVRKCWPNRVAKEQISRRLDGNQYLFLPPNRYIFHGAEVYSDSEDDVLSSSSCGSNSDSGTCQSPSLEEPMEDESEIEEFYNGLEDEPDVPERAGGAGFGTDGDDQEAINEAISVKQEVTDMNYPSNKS
The assay is described as follows: Mass spectrometry based SIRT1 deacetylation (activation) assay. The class given is biochemical. As to conditions: 0.5 μM peptide substrate, 120 μM βNAD+, 10 nM SIRT1, 25 min at 25° C.; for Emax: 25 min, read-out: % Fold Act. (percent maximum fold activation). From the text: A mass spectrometry based assay was used to identify modulators of SIRT1 activity. The mass spectrometry based assay utilizes a peptide having 20 amino acid residues as follows: Ac-EE-K(biotin)-GQSTSSHSK(Ac)NleSTEG-K(5TMR)-EE-NH2 (SEQ ID NO: 1) wherein K(Ac) is an acetylated lysine residue and Nle is a norleucine. The peptide is labeled with the fluorophore 5TMR (excitation 540 nm/emission 580 nm) at the C-terminus. The sequence of the peptide substrate is based on p53 with several modifications. In addition, the methionine residue naturally present in the sequence was replaced with the norleucine because the methionine may be susceptible to oxidation during synthesis and purification.
The mass spectrometry assay is conducted as follows: 0.5 μM peptide substrate and 120 μM βNAD^+ is incubated with 10 nM SIRT1 for 25 minutes at 25° C. in a reaction buffer (50 mM Tris-acetate pH 8, 137 mM NaCl, 2.7 mM KCl, 1 mM MgCl2, 5 mM DTT, 0.05% BSA). Test compounds may be added to the reaction as described above. […] After the 25 minute incubation with SIRT1, 10 μL of 10% formic acid is added to stop the reaction. Reactions are sealed and frozen for later mass spec analysis. Determination of the mass of the substrate peptide allows for precise determination of the degree of acetylation (i.e. starting material) as compared to deacetylated peptide (product).
A control for inhibition of sirtuin activity is conducted by adding 1 μL of 500 mM nicotinamide as a negative control at the start of the reaction (e.g., permits determination of maximum sirtuin inhibition). A control for activation of sirtuin activity is conducted using 10 nM of sirtuin protein, with 1 μL of DMSO in place of compound, to determine the amount of deacetylation of the substrate at a given timepoint within the linear range of the assay. This timepoint is the same as that used for test compounds and, within the linear range, the endpoint represents a change in velocity.
For the above assay, SIRT1 protein was expressed and purified as follows. […] The protein was expressed by induction with 1 mM IPTG as an N-terminal His-tag fusion protein at 18° C. overnight and harvested at 30,000×g. Cells were lysed with lysozyme in lysis buffer (50 mM Tris-HCl, 2 mM Tris[2-carboxyethyl]phosphine (TCEP), 10 μM ZnCl2, 200 mM NaCl) and further treated with sonication for 10 min for complete lysis. The protein was purified over a Ni-NTA column (Amersham) and fractions containing pure protein were pooled, concentrated and run over a sizing column (Sephadex S200 26/60 global). The peak containing soluble protein was collected and run on an Ion-exchange column (MonoQ). Gradient elution (200 mM-500 mM NaCl) yielded pure protein. This protein was concentrated and dialyzed against dialysis buffer (20 mM Tris-HCl, 2 mM TCEP) overnight. The protein was aliquoted and frozen at −80° C. until further use.

Where a name gives a salt, the structure may show the parent alone.

Regarding `CCN(CCN(C)C)c1cc(C(=O)Nc2ccccc2C(=O)NC2CCN(C(=O)OC(C)(C)C)CC2)nc(-c2ccccc2)n1` [Compound 166, tert-butyl 4-(2-(6-((2-(dimethylamino)ethyl)(ethyl)amino)-2-phenylpyrimidine-4-carboxamido)benzamido)piperidine-1-carboxylate], the EC1.5 entry is “B (EC1.5>1 and ≦10 uM)”; the Emax was 150 to 300%.

With `CCN(CCN(C)C)c1cc(C(=O)Nc2ccccc2-c2nnc(N3CCOCC3)s2)nc(-c2ccccc2)n1` [Compound 105], the EC1.5 entry is on record as “A (EC1.5≦1 uM)” and the Emax was at least 300%.

Consider `CCN(CCN(C)C)c1cc(C(=O)Nc2ccccc2C(=O)NC2CCC2)nc(-c2ccccc2)n1` [Compound 164, N-(2-(cyclobutylcarbamoyl)phenyl)-6-((2-(dimethylamino)ethyl)(ethyl)amino)-2-phenylpyrimidine-4-carboxamide], for which the EC1.5 entry is “A (EC1.5≦1 uM)” and the Emax was at least 300%.

Consider `CCN(CCN(C)C)c1cc(C(=O)Nc2ccccc2-c2ncc(C(C)(C)C)s2)nc(-c2ccccc2)c1` [Compound 42], for which the EC1.5 result is recorded as “A (EC1.5≦1 uM)” and the Emax was 150 to 300%.

As for `CCN(CCN(C)C)c1cc(C(=O)Nc2ccccc2C(=O)Nc2ccccc2C(N)=O)nc(-c2ccccc2)n1` [Compound 160, N-(2-(2-carbamoylphenylcarbamoyl)phenyl)-6-((2-(dimethylamino)ethyl)(ethyl)amino)-2-phenylpyrimidine-4-carboxamide], the EC1.5 result is on record as “A (EC1.5≦1 uM)” and the Emax was at least 300%.

In the case of `CC(=O)c1ccccc1NC(=O)c1cc(N2CCOCC2)nc(-c2ccccc2)n1` [Compound 134], the EC1.5 result is recorded as “A (EC1.5≦1 uM)” and the Emax was 150 to 300%.

Consider `CN(C)CCN(C)c1cc(C(=O)Nc2ccccc2-c2nncs2)nc(-c2ccccc2)n1` [Compound 27], for which the EC1.5 result is “A (EC1.5≦1 uM)” and the Emax is at least 300%.

As for `CN(C)CCNc1cc(C(=O)Nc2ccccc2C(=O)Nc2cccc(S(C)(=O)=O)c2)nc(-c2ccccc2)n1` [Compound 154, 6-(2-(dimethylamino)ethylamino)-N-(2-(3-(methylsulfonyl)phenylcarbamoyl)phenyl)-2-phenylpyrimidine-4-carboxamide], the EC1.5 result is given as “A (EC1.5≦1 uM)” and the Emax is at least 300%.

Turning to `COCCNc1cc(C(=O)Nc2ccccc2-c2nnc(N3CCN4CCC[C@H]4C3)s2)nc(-c2ccccc2)n1` [Compound 117], the EC1.5 result was “A (EC1.5≦1 uM)” and the Emax lay within 150 to 300%.

On to `CC(C)c1nnc(-c2ccccc2NC(=O)c2cc(NCCN(C)C)nc(-c3ccccc3)n2)s1` [Compound 72], for which the EC1.5 entry is on record as “A (EC1.5≦1 uM)” and the Emax is at least 300%.

Consider `CCN(CCN(C)C)c1cc(C(=O)Nc2ccccc2C(=O)NC2CCNC2)nc(-c2ccccc2)n1` (stereo not drawn) [Compound 175, 6-((2-(dimethylamino)ethyl)(ethyl)amino)-2-phenyl-N-(2-(pyrrolidin-3-ylcarbamoyl)phenyl)pyrimidine-4-carboxamide], for which the EC1.5 result is on record as “A (EC1.5≦1 uM)” and the Emax is at least 300%.

On to `CCN(CCN(C)C)c1cc(C(=O)Nc2ccccc2-c2nnc(C(C)C)s2)nc(-c2ccccc2)n1` [Compound 83], for which the EC1.5 entry is reported as “A (EC1.5≦1 uM)” and the Emax is at least 300%.

For the compound `COCCN(CCOC)c1cc(C(=O)Nc2ccccc2C(C)=O)nc(-c2ccccc2)n1` [Compound 141], the EC1.5 result was “A (EC1.5≦1 uM)” and the Emax is at least 300%.

In the case of `Cc1ccc(NC(=O)c2ccccc2NC(=O)c2cc(NCCN(C)C)nc(-c3ccccc3)n2)cc1` [Compound 144, 6-(2-(dimethylamino)ethylamino)-2-phenyl-N-(2-(p-tolylcarbamoyl)phenyl)pyrimidine-4-carboxamide], the EC1.5 entry is recorded as “A (EC1.5≦1 uM)” and the Emax was in the range of 150 to 300%.

Take `COCCN(CCOC)c1cc(C(=O)Nc2ccccc2-c2nnc(C(=O)N3CCOCC3)s2)nc(-c2ccccc2)n1` [Compound 92]: the EC1.5 result is given as “A (EC1.5≦1 uM)” and the Emax is at least 300%.

Turning to `CN(C)CCNc1cc(C(=O)Nc2ccccc2-c2nnc(C(N)=O)s2)nc(-c2ccccc2)n1` [Compound 66], the EC1.5 result is “A (EC1.5≦1 uM)” and the Emax is 150 to 300%.

Take `CCCc1nnc(-c2ccccc2NC(=O)c2cc(NCCN(C)C)nc(-c3ccccc3)n2)s1` [Compound 54]: the EC1.5 result is “B (EC1.5>1 and ≦10 uM)”; the Emax was in the range of 150 to 300%.

Take `O=C(Nc1ccccc1-c1nnc(N2CCOCC2)s1)c1cc(OC[C@H](O)CO)nc(-c2ccccc2)n1` [Compound 109]: the EC1.5 entry is “A (EC1.5≦1 uM)” and the Emax is at least 300%.

With `CN(C)CCN(C)c1cc(C(=O)Nc2ccccc2-c2nnc(-c3ccccc3)s2)nc(-c2ccccc2)c1` [Compound 35], the EC1.5 result is listed as “A (EC1.5≦1 uM)” and the Emax lay in the range of 150 to 300%.

In the case of `CCN(CCN(C)C)c1cc(C(=O)Nc2ccccc2-c2nnc(C3CCOCC3)s2)nc(-c2ccccc2)n1` [Compound 93, 6-((2-(dimethylamino)ethyl)(ethyl)amino)-2-phenyl-N-(2-(5-(tetrahydro-2H-pyran-4-yl)-1,3,4-thiadiazol-2-yl)phenyl)pyrimidine-4-carboxamide hydrochloride], the EC1.5 entry was “A (EC1.5≦1 uM)” and the Emax was at least 300%.

On to `CC(C)(C)c1cnc(-c2ccccc2NC(=O)c2cc(OC[C@@H](O)CO)cc(-c3ccccc3)n2)o1` [Compound 76], for which the EC1.5 entry was “B (EC1.5>1 and ≦10 uM)”; the Emax is at least 300%.

Turning to `CC(=O)c1ccccc1NC(=O)c1cc(NC2CCN(C)CC2)nc(-c2ccccc2)n1` [Compound 143], the EC1.5 result is reported as “A (EC1.5≦1 uM)” and the Emax is at least 300%.

On to `CN(C)CCNc1cc(C(=O)Nc2ccccc2-n2cc(-c3ccccc3)cn2)nc(-c2ccccc2)n1` [Compound 24], for which the EC1.5 result was “B (EC1.5>1 and ≦10 uM)”; the Emax was 150 to 300%.

`CN(C)CCNc1cc(C(=O)Nc2ccccc2-c2nnc(C3CCC3)s2)nc(-c2ccccc2)n1` [Compound 48]: the EC1.5 result was “B (EC1.5>1 and ≦10 uM)”; the Emax lay within 150 to 300%.

On to `CCN(CCN(C)C)c1cc(C(=O)Nc2ccccc2-c2nnc(-c3ccncc3)s2)nc(-c2ccccc2)n1` [Compound 82], for which the EC1.5 entry is reported as “A (EC1.5≦1 uM)” and the Emax was at least 300%.

For the compound `Cc1nnc(-c2ccccc2NC(=O)c2cc(NCCN(C)C)nc(-c3ccccc3)n2)o1` [Compound 20], the EC1.5 result was “B (EC1.5>1 and ≦10 uM)”; the Emax is at least 300%.

In the case of `CCN(CCN(C)C)c1cc(C(=O)Nc2ccccc2C(=O)N[C@@H]2CCCC[C@H]2O)nc(-c2ccccc2)n1` [Compound 171, 6-((2-(dimethylamino)ethyl)(ethyl)amino)-N-(2-((1R,2R)-2-hydroxycyclohexylcarbamoyl)phenyl)-2-phenylpyrimidine-4-carboxamide], the EC1.5 result is “A (EC1.5≦1 uM)” and the Emax was at least 300%.

For the origin of these results see patent US20110039847A1, “AMIDE DERIVATIVES AS SIRTUIN MODULATORS” (Sirtris Pharmaceuticals, Inc, priority 2007, published 2011).
